# Laboratory results: patent US11202792B2, “CD99 inhibitors and their uses” (GEORGETOWN UNIVERSITY, priority 2016, dated 2021)
# What was measured:
# IOR/OS14 OS cells = experiment: Cell viability IC50, IOR/OS14; assay type: cell-based; settings: Homo sapiens
# Experimental: (§1) The plate was installed into the RTCA system, and the electrical impedance (represented as cell index) was measured every 10 min.
# (§2) To investigate the relationship between the level of CD99 expression and drug sensitivity, the endogenous expression of CD99 was determined in a panel of 9 ES and 13 non-ES cell lines. The recombinant purified CD99-ECD protein was used to generate standard curves for immunoquantification of CD99 expression by immunoblotting (FIGS. 6B and 6C).
# 6647 ES cells = experiment: Cell viability IC50, 6647; assay type: cell-based; settings: Homo sapiens
# Experimental: as §1, §2
# SKES xenografts = experiment: Orthotopic SKES xenograft, i.p. administration; assay type: in vivo, SCID/beige mice; settings: for tumor growth: i.p.
# Experimental: All tumor tissues were fixed in 10% neutral buffered formalin for 24 h, dehydrated through a graded series of alcohols and cleared in xylenes prior to embedding in paraffin. Embedded tissues were cut into 5 μm thick sections and stained with hematoxylin and eosin (H&E). Immunohistochemical staining was performed for CD99 and caspase 3 (cleaved). Five micron sections from formalin fixed paraffin embedded tissues were de-paraffinized with xylenes and rehydrated through a graded alcohol series. Heat induced epitope retrieval was performed by immersing the tissue sections at 98° C. for 60 min in 10 mmol/L citrate buffer (pH 6.0). Immunohistochemical staining was performed using a horseradish peroxidase labeled polymer from Agilent (Santa Clara, Calif.) (#K4001, #K4003) according to manufacturer's instructions. Briefly, slides were treated with 3% hydrogen peroxide and 10% normal goat serum for 10 min each, and exposed to primary antibodies for CD99 (Abcam, #ab8855) at a 1:100 dilution and for caspase 3 (cleaved) (Biocare (Pacheco, Calif.), #CP229A) at a 1:90 dilution in Da Vinci Green for one hour and stained on an DAKO Autostainer. Slides were exposed to the appropriate HRP labeled polymer for 30 min and DAB chromogen (Dako (Santa Clara, Calif.) for 5 min. Slides were counterstained with Hematoxylin (Fisher, Harris Modified Hematoxylin), blued in 1% ammonium hydroxide, dehydrated, and mounted with Acrymount. Consecutive sections with the primary antibody omitted were used as negative controls. The sections were evaluated in a blinded fashion by a board certified pathologist.
# The antitumor activity of drugs through intraperitoneal (i.p.) administration given once daily was determined. […] The in vivo potencies of drug treatments were evaluated by event-free survival curves, where tumors that reached 1.0 cm^3 in size considered an event.
# TC-71 ES cells = experiment: Cell viability IC50, TC-71; assay type: cell-based, human; settings: for IC50: Homo sapiens; for Fold changes in IC50: TC-71 parental cells, mean ± SD
# IOR/CAR ES cells = experiment: Cell viability IC50, IOR/CAR; assay type: cell-based; settings: Homo sapiens
# Experimental: as §1, §2
# [1] = target: T1, CD99-ECD (extracellular domain of human CD99) (Homo sapiens, UniProt P14209); experiment: SPR binding, CD99-ECD purified from bacteria
# T1 construct: the extracellular domain (Asp23-Asp122) of human CD99; made in house; host or cells: Escherichia coli BL21 (DE3)
# T1 sequence (P14209 23-122): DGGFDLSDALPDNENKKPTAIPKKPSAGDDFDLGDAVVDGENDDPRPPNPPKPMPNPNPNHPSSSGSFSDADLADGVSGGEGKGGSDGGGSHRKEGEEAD
# From the text: The Champion™ pET104 BioEase™ Gateway® Expression System (Invitrogen (Carlsbad, Calif.)) was used to produce CD99-ECD fused with a N-terminal biotin tag, as directed by the manufacturer's instructions. Briefly, the DNA sequence encoding the extracellular domain (Asp23-Asp122) of human CD99 was amplified by PCR using pcDNA3.1 expression vector (Life Technologies (Carlsbad, Calif.)) carrying the full-length human CD99 cDNA transcript variant 1 as template. The primers were designed to include an additional C-terminal 6×His tag in the protein. The PCR product was gel purified with a QIAquick gel extraction kit (Qiagen (Hilden, Germany)) and subcloned into the pDONR 221 entry vector. The entry clone was then subjected to a recombination reaction with pET104.1-DEST destination vector, an expression vector with a N-terminal BioEase tag. The presence of an insert was confirmed by DNA sequencing.
# CD99-ECD was expressed in Escherichia coli BL21 (DE3) cells. A saturated overnight culture of cells was diluted by 20-fold into fresh LB medium containing 100 μg/mL ampicillin. To induce the expression of CD99-ECD, cells were grown to OD600nm 0.5-0.7 at 37° C. and induced by the addition of isopropyl-β-D-thiogalactopyranoside to a final concentration of 1 mmol/L. The cultures were grown for an additional 3 h at 37° C. Cells were harvested by centrifugation at 8,000×g for 15 min, resuspended in 50 mmol/L sodium phosphate buffer, pH 7.4, containing 500 mmol/L NaCl, 10 mmol/L imidazole and 1 Complete EDTA-free protease inhibitor tablet/50 mL (Roche Diagnostics), and lysed by sonication. […] Protein fractions were finally eluted with a linear gradient of imidazole (10 to 1000 mmol/L) in the same buffer. The purity of the protein was assessed by SDS-PAGE followed by Coomassie staining. The eluted fractions were stored at −80° C. for further use. […]
Structure (SMILES),IC50 (IOR/OS14 OS cells) [µM],IC50 (6647 ES cells) [µM],"mitotic figures per field (SKES xenografts; H&E, 200-fold magnification)","apoptotic cells (SKES xenografts; H&E, confirmed by caspase-3 immunohistochemistry)","event-free survival (SKES xenografts; i.p. once daily, 20 mg/kg both, vs vehicle)",tumor growth (SKES xenografts; 20 mg/kg both),"IC50 (TC-71 ES cells; TC-71 (ES), Table 1) [µM]","IC50 (TC-71 ES cells; TC-71 cells, WST-1, 48 h (FIG. 10B)) [µM]",Fold changes in IC50 (TC-71 ES cells),IC50 (IOR/CAR ES cells) [µM],Kd [1] [µM]
Nc1nc(Cl)nc2c1ncn2[C@@H]1O[C@H](CO)[C@@H](O)[C@@H]1F [clofarabine],> 10,0.34,≤ 3,significant increase,significantly improved,significant inhibition of tumor growth,0.15,0.15,1.10 ± 0.38 (n = 8),0.29,4.6 ± 3.2
Nc1nc(Cl)nc2c1ncn2[C@H]1C[C@H](O)[C@@H](CO)O1 [cladribine],> 30,0.71,–,–,–,less effective,0.5,–,1.02 ± 0.27 (n = 5),0.66,3.8 ± 2.4
